Tested on: KRAS PDC multicell spheroid viability
Experiment: Anticancer human tumor 521955-158-R6-J3-PDC patient-derived pancreatic carcinoma cell line growth inhibition [KRAS2]
Conditions: for IC50: curve of first compound; for viability, T/C: stronger effect = lower value
Summary of the method: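 Combination screen of spheroid viability in tumor-cell co-cultures with endothelial (HUVEC) and mesenchymal stem cell stroma. Each agent was tested in half-log dilutions, topping at clinical Cmax or at 10 microM without a known Cmax.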

[1] = second compound 0.1 µM, first compound 0.000316 µM
[2] = second compound 0.1 µM, first compound 0.001 µM
[3] = second compound 0.1 µM, first compound 0.00316 µM
[4] = second compound 0.1 µM, first compound 0.01 µM
[5] = second compound 0.1 µM, first compound 0.0316 µM
[6] = second compound 0.1 µM, first compound 0.1 µM
[7] = second compound 0.316 µM, first compound 0.000316 µM
[8] = second compound 0.316 µM, first compound 0.001 µM
[9] = second compound 0.316 µM, first compound 0.00316 µM
[10] = second compound 0.316 µM, first compound 0.01 µM
[11] = second compound 0.316 µM, first compound 0.0316 µM
[12] = second compound 0.316 µM, first compound 0.1 µM
[13] = second compound 1 µM, first compound 0.000316 µM
[14] = second compound 1 µM, first compound 0.001 µM
[15] = second compound 1 µM, first compound 0.00316 µM
[16] = second compound 1 µM, first compound 0.01 µM
[17] = second compound 1 µM, first compound 0.0316 µM
[18] = second compound 1 µM, first compound 0.1 µM
[19] = second compound 3.16 µM, first compound 0.000316 µM
[20] = second compound 3.16 µM, first compound 0.001 µM
[21] = second compound 3.16 µM, first compound 0.00316 µM
[22] = second compound 3.16 µM, first compound 0.01 µM
[23] = second compound 3.16 µM, first compound 0.0316 µM
[24] = second compound 3.16 µM, first compound 0.1 µM
[25] = second compound 10 µM, first compound 0.000316 µM
[26] = second compound 10 µM, first compound 0.001 µM
[27] = second compound 10 µM, first compound 0.00316 µM
[28] = second compound 10 µM, first compound 0.01 µM
[29] = second compound 10 µM, first compound 0.0316 µM
[30] = second compound 10 µM, first compound 0.1 µM
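Also: drug exposure lasted seven days.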
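For viability, T/C in this document: 100% = DMSO vehicle wells and lower means fewer viable cells.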

Compound | IC50 (second compound 0.1 µM) | IC50 (second compound 0.316 µM) | IC50 (second compound 1 µM) | IC50 (second compound 3.16 µM) | IC50 (second compound 10 µM) | viability, T/C [1] | viability, T/C [2] | viability, T/C [3] | viability, T/C [4] | viability, T/C [5] | viability, T/C [6] | viability, T/C [7] | viability, T/C [11] | viability, T/C [12] | viability, T/C [17] | viability, T/C [18] | viability, T/C [23] | viability, T/C [24] | viability, T/C [29] | viability, T/C [30] | also measured
CN(C)C/C=C/C(=O)Nc1cc2c(Nc3ccc(F)c(Cl)c3)ncnc2cc1O[C@H]1CCOC1 + C=CC(=O)N1CCN(c2nc(=O)n(-c3c(C)ccnc3C(C)C)c3nc(-c4c(O)cccc4F)c(F)cc23)C(C)C1 | > 100 nM | > 100 nM | > 100 nM | > 100 nM | > 100 nM | 101% | 92.9% | 85.4% | 72.8% | 68.6% | 66.6% | 119% | 71.2% | 66.3% | 67.6% | 69.4% | 69.6% | 69.7% | 58.5% | 65.3% | viability, T/C [8]: 112%; viability, T/C [9]: 79.9%; viability, T/C [10]: 81.7%; viability, T/C [13]: 113%; viability, T/C [14]: 92.2%; viability, T/C [15]: 102%; viability, T/C [16]: 79.8%; viability, T/C [19]: 112%; viability, T/C [20]: 97%; viability, T/C [21]: 83.7%; viability, T/C [22]: 79%; viability, T/C [25]: 73.2%; viability, T/C [26]: 109%; viability, T/C [27]: 66.7%; viability, T/C [28]: 62.3%
CC1(C)CCC(CN2CCN(c3ccc(C(=O)NS(=O)(=O)c4ccc(NCC5CCOCC5)c([N+](=O)[O-])c4)c(Oc4cnc5[nH]ccc5c4)c3)CC2)=C(c2ccc(Cl)cc2)C1 + C=CC(=O)N1CCN(c2nc(=O)n(-c3c(C)ccnc3C(C)C)c3nc(-c4c(O)cccc4F)c(F)cc23)C(C)C1 | 5940 nM | 7340 nM | 4830 nM | 6490 nM | 2960 nM |  |  |  |  | 89.3% | 98.8% |  | 113% | 112% | 111% | 104% | 91.9% | 93.5% | 89.2% | 104% | viability, T/C (second compound 0.1 µM, first compound 0.316 µM): 97.1%; viability, T/C (second compound 0.1 µM, first compound 1 µM): 93.2%; viability, T/C (second compound 0.1 µM, first compound 3.16 µM): 72.2%; viability, T/C (second compound 0.1 µM, first compound 10 µM): 31.6%; viability, T/C (second compound 0.316 µM, first compound 0.316 µM): 101%; viability, T/C (second compound 0.316 µM, first compound 1 µM): 102%; viability, T/C (second compound 0.316 µM, first compound 3.16 µM): 77.5%; viability, T/C (second compound 0.316 µM, first compound 10 µM): 39.5%; viability, T/C (second compound 1 µM, first compound 0.316 µM): 106%; viability, T/C (second compound 1 µM, first compound 1 µM): 95.8%; viability, T/C (second compound 1 µM, first compound 3.16 µM): 65.4%; viability, T/C (second compound 1 µM, first compound 10 µM): 23.4%; viability, T/C (second compound 3.16 µM, first compound 0.316 µM): 95.2%; viability, T/C (second compound 3.16 µM, first compound 1 µM): 92.1%; viability, T/C (second compound 3.16 µM, first compound 3.16 µM): 67.2%; viability, T/C (second compound 3.16 µM, first compound 10 µM): 39.6%; viability, T/C (second compound 10 µM, first compound 0.316 µM): 88.7%; viability, T/C (second compound 10 µM, first compound 1 µM): 73.5%; viability, T/C (second compound 10 µM, first compound 3.16 µM): 49.8%; viability, T/C (second compound 10 µM, first compound 10 µM): 25.7%
CC(C)n1nc(-c2ccc3oc(N)nc3c2)c2c(N)ncnc21 + C=CC(=O)N1CCN(c2nc(=O)n(-c3c(C)ccnc3C(C)C)c3nc(-c4c(O)cccc4F)c(F)cc23)C(C)C1 | > 100 nM | > 100 nM | > 100 nM | > 100 nM | 84.8 nM | 96.2% | 90.9% | 75.6% | 67.9% | 62.5% | 55.4% | 91.7% | 66.9% | 53.3% | 67.4% | 53.5% | 66.7% | 56.4% | 59.8% | 47.5% | viability, T/C [8]: 97.7%; viability, T/C [9]: 92.8%; viability, T/C [10]: 70.8%; viability, T/C [13]: 97.8%; viability, T/C [14]: 90.6%; viability, T/C [15]: 77.3%; viability, T/C [16]: 71.9%; viability, T/C [19]: 93%; viability, T/C [20]: 93%; viability, T/C [21]: 81.4%; viability, T/C [22]: 70.2%; viability, T/C [25]: 99%; viability, T/C [26]: 89.9%; viability, T/C [27]: 74.6%; viability, T/C [28]: 77.2%

Source: PubChem BioAssay AID1963864 (Molecular Pharmacology Branch, DTP, NCI, 2024)
